Data published in patent publication US7226922B2 (dated 2007).

## Cc1cnn2c(-c3cccc(-c4ccccc4C#N)c3)cnc2c1
  melting point: 164 to 166 °C
